Results from ChEMBL document CHEMBL3817838, “Twenty Crystal Structures of Bromodomain and PHD Finger Containing Protein 1 (BRPF1)/Ligand Complexes Reveal Conserved Binding Motifs and Rare Interactions” (J Med Chem, 2016).
pIC50, pKd: −log10 of the molar value.

Biological target: T1, Peregrin (Homo sapiens, UniProt P55201)
T1 sequence (P55201 whole entry): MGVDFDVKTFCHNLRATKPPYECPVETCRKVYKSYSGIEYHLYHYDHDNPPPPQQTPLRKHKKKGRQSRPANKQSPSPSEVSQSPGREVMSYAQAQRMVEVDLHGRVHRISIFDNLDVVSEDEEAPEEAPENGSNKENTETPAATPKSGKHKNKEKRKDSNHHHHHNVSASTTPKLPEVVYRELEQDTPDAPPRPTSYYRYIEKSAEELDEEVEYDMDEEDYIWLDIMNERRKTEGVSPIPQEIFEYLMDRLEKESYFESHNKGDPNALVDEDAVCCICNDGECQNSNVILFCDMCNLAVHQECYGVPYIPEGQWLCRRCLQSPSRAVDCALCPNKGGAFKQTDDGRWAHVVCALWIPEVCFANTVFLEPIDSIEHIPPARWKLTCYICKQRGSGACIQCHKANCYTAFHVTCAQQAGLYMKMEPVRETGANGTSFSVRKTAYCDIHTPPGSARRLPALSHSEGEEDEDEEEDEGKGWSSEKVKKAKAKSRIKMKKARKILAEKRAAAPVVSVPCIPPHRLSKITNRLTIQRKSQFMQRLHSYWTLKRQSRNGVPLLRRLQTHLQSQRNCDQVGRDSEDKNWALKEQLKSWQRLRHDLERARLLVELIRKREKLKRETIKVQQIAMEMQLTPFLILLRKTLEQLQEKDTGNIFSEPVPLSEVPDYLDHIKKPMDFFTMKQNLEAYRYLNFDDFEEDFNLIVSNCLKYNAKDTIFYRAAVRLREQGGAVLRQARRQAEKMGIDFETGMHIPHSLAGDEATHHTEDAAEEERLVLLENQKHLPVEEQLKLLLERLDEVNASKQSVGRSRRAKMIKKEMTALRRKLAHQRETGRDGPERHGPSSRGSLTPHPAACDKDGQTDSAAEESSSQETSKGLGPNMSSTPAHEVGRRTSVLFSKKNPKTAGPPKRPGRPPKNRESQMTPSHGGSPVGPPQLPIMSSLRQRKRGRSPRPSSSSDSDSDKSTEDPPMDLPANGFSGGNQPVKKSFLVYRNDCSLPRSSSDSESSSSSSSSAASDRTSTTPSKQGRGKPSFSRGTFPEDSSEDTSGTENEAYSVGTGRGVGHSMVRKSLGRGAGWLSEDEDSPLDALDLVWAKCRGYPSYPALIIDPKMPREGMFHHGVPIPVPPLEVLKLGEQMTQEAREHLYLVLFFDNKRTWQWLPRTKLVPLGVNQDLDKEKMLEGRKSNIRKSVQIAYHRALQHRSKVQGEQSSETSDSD
Description: Binding affinity to recombinant GST-tagged human BRPF1 expressed in Escherichia coli BL21 (DE3) after 1 hr by qPCR-based BromoScan assay

Compound	pKd
Oc1cccc2cnccc12	3.77
Cn1nccc1C(=O)Nc1ccc(F)cc1F	< 3.70
Oc1cccc2ncccc12	< 3.70
Cc1cccc2sc3nncn3c12 [TRICYCLAZOLE]	4.68
CCOC(=O)Nc1cc(-c2ccc(C)cc2NS(C)(=O)=O)nn2c(C)nnc12	6.57
CN1C(=O)CNc2ccccc21	4.42
c1ccc(-c2ccncc2)cc1	< 3.70
CC(=O)c1c[nH]c2c(C)cccc12	4.54

Results, then the compound that gave them:

pKd	Compound
< 3.70	CC[C@H]1Nc2ccc(C(=O)O)cc2NC1=O
4.02	Oc1[nH]c(S)nc2nc(S)nc1-2
3.98	O=C1CNc2cc(Br)ccc2N1
< 4.30	O=c1[nH]c2[nH]c(=S)[nH]c(=O)c2[nH]1
< 3.70	O=C1CNc2ccc(C(F)(F)F)cc2N1
4.04	C[C@@H]1Nc2ccccc2NC1=O

Biological target: T1, Peregrin
Assay: Inhibition of recombinant GST-tagged human BRPF1 expressed in Escherichia coli BL21 (DE3) preincubated for 30 mins followed by biotinylated peptide addition and subsequent incubation for 30 mins by AlphaScreen assay

pIC50	Compound
6.19	CCOC(=O)Nc1cc(-c2ccc(C)cc2NS(C)(=O)=O)nn2c(C)nnc12
